System: lung-resident ILCs
Experiment: SMART-Seq2 plate-based scRNA-seq of lung-resident ILCs from PBS-, IL-25- or IL-33-treated mice, differential gene expression by logistic regression (Tables 3, 4)
Format: in vivo, mouse
Excerpt: Mice and in vivo ILC activation. C57B1/6J mice were purchased from the Jackson Laboratory. Nmur1-LacZ reporter mice with a LacZ cassette knocked into the Nmur1 locus were rederived from Nmur1^tm1.1(KOMP)Vlcg sperm obtained from the trans-NIH Knock-Out Mouse Project (KOMP) Repository. NMU-deficient mice (NMU-KO) were rederived from B6.129S2-Nmu<tm1Mko> embryos from the RIKEN BioResource Center. For experiments with Nmur1-LacZ (Nmur1-KO) and NMU-KO mice, littermates that were either homozygous or heterozygous for the wild type allele were used as controls. Mice were housed under specific-pathogen-free conditions. For experiments, mice were matched for sex and age, and most mice were 6-10 weeks old. Where indicated, mice were anesthetized with Isoflurane and treated intranasally with the indicated stimuli (500 ng IL-25, 500 ng IL-33, or 20 μg Neuromedin U) daily for three consecutive days. The total administered volume was 20 μl for all conditions. Mice were randomly assigned to treatment groups after matching for sex and age. […] Mice were treated intranasally with 10 μg HDM on day 0, 7, 8, and 9, prior to sacrifice on day 10. All experiments were conducted in accordance with animal protocols approved by the Harvard Medical Area Standing Committee on Animals or BWH IACUC.
Fluorescence-activated cell sorting of innate lymphoid cells. After dissociation, single cell suspensions were incubated with CD90.2 MicroBeads (Miltenyi Biotec) on ice and enriched for CD90.2^+ cells by magnetic separation using LS columns according to the manufacturer's protocol. CD90.2^+ lung cells were then stained on ice with antibodies for sorting. ILCs were defined as 7AAD^− CD45^+ CD90.2^+ CD127^+ Lineage (CD11b, CD11c, CD19, NK1.1, […], CD4, CD8a, TCRβ, TCRγδ)^− cells and sorted on a BD FACS Aria (BD Biosciences).
For full-length scRNA-Seq, single ILCs were sorted into 96-well plates containing 5 ul TCL Buffer (QIAGEN) with 1% 2-Mercaptoethanol, centrifuged and frozen at −80° C. SMART-Seq2 protocol was carried out as previously described^23 with minor modifications in the reverse transcription step. cDNA was amplified with 22 cycles and fragmented with one-eighth of the standard Illumina NexteraXT reaction volume. Single-cell libraries were pooled and paired-end sequenced (38 bp×2) with a 75 cycle Nextseq 500 high output V2 kit.
Analysis of SMART-Seq2 plate-based scRNA-Seq data. Reads were aligned to mm10 using Kallisto (Bray, N. L., Pimentel, H., Meisted, P. & Pachter, L. Near-optimal probabilistic RNA-seq quantification. Nat Biotechnol 134, 525-527, doi:10.1038/nbt.3519 (2016)) quant, version 0.42.3. The R package tximport (Soneson, C., Love, M. I. & Robinson, M. D. Differential analyses for RNA-seq: transcript-level estimates improve gene-level inferences [version 2; referees: 2 approved]. F1000Research 4, doi:10.12688/f1000research.7563.2 (2016)), version 1.2.0, was used to convert the output to gene counts and traditional TPM values. Because of the variability in read counts per cell across plates, even from the same condition, as well as in the number of genes per cell across conditions, QC was performed for each of eight plates individually in order to remove cells that were outliers with respect to either measure. Out of 752 cells, 606 cells met QC criteria (234 from control, 152 from IL-25 treated mice, and 220 from IL-33 treated mice), and the number of genes per cell in this set ranged from 1,625 to 6,375. Genes that were not expressed with log(TPM)>2.5 in at least two cells were removed from further analysis. Subsequent analysis proceeded analogously to the droplet-based RNA-seq analysis, with parameter settings that reflected both the wider dynamic range of expression and much smaller cell numbers. The minimum ILC signature score required in ILC type assignment was 0.3. Variable genes were identified by running MeanVarPlot with x.low.cutoff=0.1, y.cutoff=1.5, and x.high.cutoff=10, resulting in a set of 519 genes. […]

IL33
0610031J06Rik expression coeff: 1.33 | 1700017B05Rik expression coeff: −1.5 | 1700113H08Rik expression coeff: −1.32 | 4632428N05Rik expression coeff: 1.58 | AA467197 expression coeff: 2.99 | AI593442 expression coeff: −3.15 | AI836003 expression coeff: −1.26 | AW112010 expression coeff: 0.998 | Abtb2 expression coeff: 1.34 | Acot7 expression coeff: 1.78 | Adrbk1 expression coeff: 1.08 | Adsl expression coeff: −0.98 | Ahcyl2 expression coeff: −1.24 | Amd1 expression coeff: −1.75 | Anxa2 expression coeff: 1.81 | Ap3d1 expression coeff: 0.94 | Arf5 expression coeff: 0.972 | Arhgap1 expression coeff: 1.12 | Arhgap26 expression coeff: 1.3 | Asl expression coeff: 1.31 | Asph expression coeff: −1.56 | Atp8b4 expression coeff: 1.07 | Atxn7l3b expression coeff: 0.957 | Bcl2a1d expression coeff: 0.97 | Bcl3 expression coeff: 1.42 | Bcl6 expression coeff: 1.98 | Bmp2 expression coeff: −2.03 | Brix1 expression coeff: −1.21 | C1qbp expression coeff: −1.08 | Cap1 expression coeff: 1.24 | Cblb expression coeff: 0.969 | Ccdc50 expression coeff: 0.948 | Ccdc142 expression coeff: −1.56 | Ccng1 expression coeff: 0.916 | Ccr2 expression coeff: −1.11 | Cd247 expression coeff: 1.52 | Chdh expression coeff: 1.07 | Chordc1 expression coeff: 1.09 | Chst11 expression coeff: 1.25 | Cirbp expression coeff: −1.67 | Commd10 expression coeff: −1.3 | Cox10 expression coeff: 0.894 | Cpsf7 expression coeff: 1.13 | Crlf2 expression coeff: 1.16 | Csf1 expression coeff: −1.61 | Cst7 expression coeff: 1.5 | Ctla4 expression coeff: 2.65 | Ctsw expression coeff: 1.07 | Cybrd1 expression coeff: −1.22 | Dcaf12 expression coeff: 0.975 | Ddrgk1 expression coeff: −0.935 | Ddx20 expression coeff: −1.92 | Ddx58 expression coeff: 0.912 | Dennd5a expression coeff: 0.993 | Dgka expression coeff: 1.02 | Dhx35 expression coeff: −1.51 | Dhx37 expression coeff: −0.889 | Dhx58 expression coeff: 2.39 | Dkk3 expression coeff: 0.959 | Dock10 expression coeff: −0.886 | E030030I06Rik expression coeff: −1.01 | Ecm1 expression coeff: 1.16 | Endod1 expression coeff: 1.51 | Epsti1 expression coeff: 1.72 | Eva1b expression coeff: 1.29 | Exosc4 expression coeff: −0.925 | Extl3 expression coeff: −1.19 | Fam118a expression coeff: −0.991 | Fbxl21 expression coeff: −2.6 | Ffar2 expression coeff: 1.38 | Fhl2 expression coeff: −0.933 | Fosb expression coeff: −0.948 | Foxo3 expression coeff: 1.17 | Fus expression coeff: −0.954 | Gal3st3 expression coeff: −1.08 | Gba expression coeff: 0.976 | Gbp4 expression coeff: 0.935 | Gbp6 expression coeff: 1.87 | Gbp9 expression coeff: 1.12 | Gga1 expression coeff: 1.33 | Gigyf1 expression coeff: −0.966 | Glrx expression coeff: 1.26 | Gm12250 expression coeff: 3.39 | Gnai2 expression coeff: 1.04 | Gng2 expression coeff: 1.35 | Gnl3l expression coeff: −1.25 | Gp49a expression coeff: 1.62 | Gpr108 expression coeff: 0.909 | Grn expression coeff: 1.55 | Gskip expression coeff: 1.72 | Gucd1 expression coeff: 1.09 | H2-T9 expression coeff: 1.1 | H2-T10 expression coeff: 0.906 | H2-T22 expression coeff: 1.27 | Herc6 expression coeff: 1.21 | Hpcal1 expression coeff: 1.26 | Hsph1 expression coeff: 1.26 | Idh2 expression coeff: −1.43 | Ifi35 expression coeff: 0.95 | Ifngr2 expression coeff: −0.881 | Ifrd2 expression coeff: −1.74 | Igfbp4 expression coeff: −2.3 | Igsf5 expression coeff: −1.13 | Il2rb expression coeff: 1.27 | Il5 expression coeff: 1.34 | Il13 expression coeff: 1.57 | Impact expression coeff: −1.54 | Inpp1 expression coeff: 1.29 | Inpp4b expression coeff: −0.999 | Inpp5b expression coeff: 1.22 | Irf4 expression coeff: 1.58 | Irf7 expression coeff: 1.43 | Isg15 expression coeff: 3.16 | Isg20 expression coeff: 2.26 | Itgae expression coeff: 1.21 | Kit expression coeff: −1.23 | Krit1 expression coeff: 1.04 | Lamp2 expression coeff: 0.996 | Lancl1 expression coeff: −1.58 | Lat2 expression coeff: 1.05 | Lcmt2 expression coeff: −1.12 | Lgals3bp expression coeff: 1.95 | Lgals3 expression coeff: 1.4 | Lilrb4 expression coeff: 2.11 | Lpcat2 expression coeff: −1.56 | Lsm6 expression coeff: −1.12 | Lxn expression coeff: 1.29 | Ly6a expression coeff: 1.67 | Map2k4 expression coeff: 1.64 | Marf1 expression coeff: 1.15 | Med16 expression coeff: −0.941 | Mfsd1 expression coeff: 1.05 | Mgat1 expression coeff: 1.21 | Mgat5 expression coeff: 1.08 | Mier3 expression coeff: −1.41 | Mkl2 expression coeff: −0.923 | Mlec expression coeff: 0.999 | Morc3 expression coeff: 1.05 | Mov10 expression coeff: 1.45 | Mplkip expression coeff: −1.13 | Mrp63 expression coeff: 1.21 | Mrpl40 expression coeff: −1.08 | Mrpl52 expression coeff: 0.944 | Mrpl53 expression coeff: −1.26 | Mrps18a expression coeff: −1.11 | Ms4a4b expression coeff: 2.44 | Ms4a6b expression coeff: 2.02 | Mtfmt expression coeff: −1.57 | Mxd1 expression coeff: 1.05 | Mybbp1a expression coeff: −0.978 | Myg1 expression coeff: −1.26 | Myo1f expression coeff: 1.04 | Myo1g expression coeff: 1.31 | Naa60 expression coeff: 1.11 | Nbn expression coeff: −1.39 | Ndufaf3 expression coeff: 1.52 | Neu3 expression coeff: −1.92 | Nfil3 expression coeff: 1.77 | Nipal1 expression coeff: 1.74 | Nlrc5 expression coeff: 1.3 | Nol6 expression coeff: −1.23 | Nol9 expression coeff: −1.02 | Nop56 expression coeff: −1.41 | Npc2 expression coeff: 1.53 | Npnt expression coeff: 0.949 | Nrip1 expression coeff: 1.07 | Nsmaf expression coeff: 0.914 | Oas1a expression coeff: 2.09 | Ogfr expression coeff: 1.12 | Omd expression coeff: −1.13 | Parp3 expression coeff: 1.21 | Parp10 expression coeff: 1.34 | Parp14 expression coeff: 1.21 | Paxip1 expression coeff: −0.998 | Pdcd1 expression coeff: 1.35 | Pde4b expression coeff: 1.24 | Per1 expression coeff: −1.16 | Pfas expression coeff: −1.41 | Phc3 expression coeff: 0.936 | Phf11a expression coeff: 1.98 | Phf11b expression coeff: 1.89 | Picalm expression coeff: 1 | Pigv expression coeff: −1.36 | Pin4 expression coeff: 1.28 | Plac8 expression coeff: 1.62 | Plekha5 expression coeff: −1.23 | Plxdc2 expression coeff: −0.903 | Pml expression coeff: 1.2 | Ppif expression coeff: −1.91 | Ppp1r15a expression coeff: −1.09 | Pydc4 expression coeff: 1.37 | Pyhin1 expression coeff: 1.04 | Rab7l1 expression coeff: 2.2 | Rab8b expression coeff: 1.03 | Rab33b expression coeff: −1.1 | Rdh1 expression coeff: −1.91 | Rdh13 expression coeff: −1.75 | Rilpl2 expression coeff: 1.43 | Rnf125 expression coeff: 1.06 | Rtp4 expression coeff: 2.55 | Samd9l expression coeff: 1.2 | Sbno2 expression coeff: 1.2 | Sdc4 expression coeff: −0.924 | Sdccag3 expression coeff: 1.08 | Sema4a expression coeff: −0.903 | Sema4d expression coeff: 1.28 | Sesn3 expression coeff: 1.18 | Shank2 expression coeff: −3.62 | Sipa1 expression coeff: 1.34 | Slc25a24 expression coeff: 1.33 | Slc44a2 expression coeff: 1.22 | Slfn2 expression coeff: 1.6 | Smn1 expression coeff: −1.01 | Sntb1 expression coeff: 1.19 | Soat1 expression coeff: 1.07 | Socs1 expression coeff: −1.32 | Socs2 expression coeff: −1.33 | Socs3 expression coeff: 1.44 | Sp100 expression coeff: 1.07 | Sptssa expression coeff: −0.952 | Ssr3 expression coeff: 0.999 | St3gal6 expression coeff: −1.32 | Stab1 expression coeff: 1.65 | Stat1 expression coeff: 1.23 | Syt11 expression coeff: 0.979 | Taf1d expression coeff: 1.1 | Tango6 expression coeff: −2.16 | Tap1 expression coeff: 1.17 | Tap2 expression coeff: 1.07 | Tet3 expression coeff: 1.32 | Tmem33 expression coeff: 1.08 | Tmem176a expression coeff: −1 | Tmem176b expression coeff: −1.23 | Tmem209 expression coeff: −1.27 | Tmem229b expression coeff: 1.01 | Tnfrsf18 expression coeff: −1.12 | Tnfsf10 expression coeff: −1.88 | Tpm4 expression coeff: 0.969 | Tradd expression coeff: 1.29 | Trafd1 expression coeff: 1.81 | Trim12c expression coeff: 1.16 | Trim30a expression coeff: 1.18 | Trim34a expression coeff: 1.29 | Trim30d expression coeff: 1.14 | Trip13 expression coeff: −2.7 | Trp53inp1 expression coeff: 1.16 | Ttc19 expression coeff: 1.44 | Ttc39b expression coeff: 1.16 | Ube2h expression coeff: 1.05 | Usp18 expression coeff: 1.6 | Usp36 expression coeff: −1.09 | Vdr expression coeff: 2.04 | Vmp1 expression coeff: 1.4 | Xrcc3 expression coeff: −1.02 | Zbp1 expression coeff: 2.38 | Zc3h12a expression coeff: −1.12 | Zcchc10 expression coeff: −0.914 | Zfand6 expression coeff: 1.38 | Zfc3h1 expression coeff: 1.14 | Zfp110 expression coeff: −1.24 | Zfp825 expression coeff: −1.02

Reference: patent publication US20210386829A1, “COMPOSITIONS AND METHODS FOR MODULATING CGRP SIGNALING TO REGULATE INNATE LYMPHOID CELL INFLAMMATORY RESPONSES” (The Broad Institute, Inc., priority 2018, published 2021)
